Experimental data published in patent US9247741B2, “Use of macrocyclic picolinamides as fungicides” (DOW AGROSCIENCES LLC, priority 2013, dated 2016).
Read-outs that look alike come from different tables or passages of the source.

Experiments:
[1] = tested on: Mycosphaerella graminicola; Anamorph: Septoria tritici; test: Leaf blotch of wheat (SEPTTR) disease control on wheat seedlings; format: in vivo; conditions: Zymoseptoria tritici, wheat; for pest or weed control at 121.5 g/ha: 121.5 g/H (low volume track spray); for pest or weed control at 100 ppm: 100 ppm (high volume)
Method: Evaluation of Fungicidal Activity: Leaf Blotch of Wheat (Mycosphaerella graminicola; Anamorph: Septoria tritici; Bayer Code […]) Technical grades of materials were dissolved in acetone, which were then mixed with nine volumes of water containing 110 ppm Triton X-100. The fungicide solutions were applied onto wheat seedlings using an automated booth sprayer to run-off. All sprayed plants were allowed to air dry prior to further handling. All fungicides were evaluated using the aforementioned method for their activity vs. all target diseases. Wheat leaf blotch and brown rust activity were also evaluated using track spray applications, in which case the fungicides were formulated as EC formulations, containing 0.1% Trycol 5941 in the spray solutions. Wheat plants (variety Yuma) were grown from seed in a greenhouse in 50% mineral soil/50% soil-less Metro mix until the first leaf was fully emerged, with 7-10 seedlings per pot. These plants were inoculated with an aqueous spore suspension of Septoria tritici either prior to or after fungicide treatments. After inoculation the plants were kept in 100% relative humidity (one day in a dark dew chamber followed by two to three days in a lighted dew chamber at 20° C.) to permit spores to germinate and infect the leaf. The plants were then transferred to a greenhouse set at 20° C. for disease to develop. When disease symptoms were fully expressed on the l^st leaves of untreated plants, infection levels were assessed on a scale of 0 to 100 percent disease severity. Percent disease control was calculated using the ratio of disease severity on treated plants relative to untreated plants.

Puccinia triticina = test: Wheat brown rust (PUCCRT) disease control on wheat seedlings; format: in vivo; conditions: for pest or weed control at 121.5 g/ha: 121.5 g/H (low volume track spray); for pest or weed control at 100 ppm: 100 ppm (high volume)
Method: Technical grades of materials were dissolved in acetone, which were then mixed with nine volumes of water containing 110 ppm Triton X-100. The fungicide solutions were applied onto wheat seedlings using an automated booth sprayer to run-off. All sprayed plants were allowed to air dry prior to further handling. All fungicides were evaluated using the aforementioned method for their activity vs. all target diseases. Wheat leaf blotch and brown rust activity were also evaluated using track spray applications, in which case the fungicides were formulated as EC formulations, containing 0.1% Trycol 5941 in the spray solutions. Wheat plants (variety Yuma) were grown from seed in a greenhouse in 50% mineral soil/50% soil-less Metro mix until the first leaf was fully emerged, with 7-10 seedlings per pot. These plants were inoculated with an aqueous spore suspension of Septoria tritici either prior to or after fungicide treatments. After inoculation the plants were kept in 100% relative humidity (one day in a dark dew chamber followed by two to three days in a lighted dew chamber at 20° C.) to permit spores to germinate and infect the leaf. The plants were then transferred to a greenhouse set at 20° C. for disease to develop. When disease symptoms were fully expressed on the l^st leaves of untreated plants, infection levels were assessed on a scale of 0 to 100 percent disease severity. Percent disease control was calculated using the ratio of disease severity on treated plants relative to untreated plants. Evaluation of Fungicidal Activity: Wheat Brown Rust (Puccinia triticina; Synonym: Puccinia recondite f sp. tritici; Bayer code PUCCRT) Wheat plants (variety Yuma) were grown from seed in a greenhouse in 50% mineral soil/50% soil-less Metro mix until the first leaf was fully emerged, with 7-10 seedlings per pot. These plants were inoculated with an aqueous spore suspension of Puccinia triticina either prior to or after fungicide treatments. After inoculation the plants were kept in a dark dew room at 22° C. with 100% relative humidity overnight to permit spores to germinate and infect the leaf. The plants were then transferred to a greenhouse set at 24° C. for disease to develop. Fungicide formulation, application and disease assessment followed the procedures as described in the Example A.

[2] = 24 h, 1 Day Protectant, read-out: SEPTTR 1DP disease control rating
[3] = 72 h, 3 Day Curative, read-out: SEPTTR 3DC disease control rating
[4] = 24 h, 1 Day Protectant, read-out: PUCCRT 1DP disease control rating
[5] = 72 h, 3 Day Curative, read-out: PUCCRT 3DC disease control rating

SMILES	pest or weed control at 121.5 g/ha [1, 2] [%]	pest or weed control at 121.5 g/ha [1, 3] [%]	pest or weed control at 121.5 g/ha (Puccinia triticina; [4]) [%]	pest or weed control at 121.5 g/ha (Puccinia triticina; [5]) [%]	pest or weed control at 100 ppm [1, 2] [%]	pest or weed control at 100 ppm [1, 3] [%]	pest or weed control at 100 ppm (Puccinia triticina; [4]) [%]	pest or weed control at 100 ppm (Puccinia triticina; [5]) [%]
COc1ccnc(C(=O)N[C@H]2CCC[C@H](OCc3ccccc3)[C@@H](CCC(C)C)[C@H](C)OC2=O)c1OCOC(C)=O [Compound 1]	> 70	> 70	> 70	> 70				
COc1ccnc(C(=O)N[C@H]2CCC[C@H](OC(=O)C3CC3)[C@@H](Cc3ccc(F)cc3)[C@H](C)OC2=O)c1O [Compound 2]					> 70	< 70	> 70	> 70
CCCO[C@H]1CCC[C@H](NC(=O)c2nccc(OC)c2OCOC(C)=O)C(=O)O[C@@H](C)[C@@H]1Cc1ccc(F)cc1 [Compound 7]	> 70	> 70	> 70	> 70				
CCCC[C@H]1[C@H](C)OC(=O)[C@@H](NC(=O)c2nccc(OC)c2O)CCC[C@@H]1OCCCC(F)(F)F [Compound 13]					> 70	< 70	> 70	< 70
CCCC[C@H]1[C@H](C)OC(=O)[C@@H](NC(=O)c2nccc(OC)c2OCOC(C)=O)CCC[C@@H]1OCc1ccccc1 [Compound 15]	> 70	> 70	> 70	> 70				
COc1ccnc(C(=O)N[C@H]2CCC[C@H](Oc3ccc(C)cc3)[C@@H](Cc3ccc(F)cc3)[C@H](C)OC2=O)c1OC(C)=O [Compound 21]	> 70	< 70	> 70	< 70				
COc1ccnc(C(=O)N[C@H]2CCC[C@H](OCC3CC3)[C@@H](Cc3ccc(F)cc3)[C@H](C)OC2=O)c1O [Compound 26]					> 70	< 70	> 70	> 70
CCCC[C@H]1[C@H](C)OC(=O)[C@@H](NC(=O)c2nccc(OC)c2O)CCC[C@@H]1Oc1ccccc1 [Compound 29]					> 70	< 70	> 70	> 70
CCCC[C@H]1[C@H](C)OC(=O)[C@@H](NC(=O)c2nccc(OC)c2O)CCC[C@@H]1OCC1CC1 [Compound 32]					> 70	> 70	> 70	> 70
CCOCC(=O)OCOc1c(OC)ccnc1C(=O)N[C@H]1CCC[C@H](Oc2ccc(C)cc2)[C@@H](Cc2ccc(F)cc2)[C@H](C)OC1=O [Compound 35]	< 70	< 70	> 70	< 70				
CCCO[C@H]1CCC[C@H](NC(=O)c2nccc(OC)c2O)C(=O)O[C@@H](C)[C@@H]1Cc1ccc(F)cc1 [Compound 37]					> 70	< 70	> 70	> 70
COc1ccnc(C(=O)N[C@H]2CCC[C@H](Oc3ccc(C)cc3)[C@@H](Cc3ccc(F)cc3)[C@H](C)OC2=O)c1O [Compound 38]					> 70	< 70	> 70	< 70
COc1ccnc(C(=O)N[C@H]2CCC[C@H](Oc3ccc(C)cc3)[C@@H](Cc3ccc(F)cc3)[C@H](C)OC2=O)c1OCOC(C)=O [Compound 42]	> 70	> 70	> 70	< 70				
COc1ccnc(C(=O)N[C@H]2CCC[C@H](OC(=O)C3CC3)[C@@H](Cc3ccc(F)cc3)[C@H](C)OC2=O)c1OCOC(C)=O [Compound 43]	> 70	> 70	> 70	> 70				
CCCC[C@H]1[C@H](C)OC(=O)[C@@H](NC(=O)c2nccc(OC)c2OC(C)=O)CCC[C@@H]1OC(=O)C(C)C [Compound 44]	> 70	> 70	> 70	> 70				
CCCC[C@H]1[C@H](C)OC(=O)[C@@H](NC(=O)c2nccc(OC)c2O)CCC[C@@H]1OCc1ccccc1 [Compound 47]					> 70	< 70	> 70	> 70
CCCC[C@H]1[C@H](C)OC(=O)[C@@H](NC(=O)c2nccc(OC)c2OCOC(C)=O)CCC[C@@H]1OC(=O)C(C)C [Compound 50]	> 70	> 70	> 70	> 70				
CCCC[C@H]1[C@H](C)OC(=O)[C@@H](NC(=O)c2nccc(OC)c2OCOC(C)=O)CCC[C@@H]1OCCCC(F)(F)F [Compound 52]	> 70	> 70	> 70	> 70				
COc1ccnc(C(=O)N[C@H]2CCC[C@H](Oc3ccc(C)cc3)[C@@H](Cc3ccccc3)[C@H](C)OC2=O)c1OC(C)=O [Compound 55]	> 70	< 70	> 70	> 70				
COc1ccnc(C(=O)N[C@H]2CCC[C@H](OCC3CC3)[C@@H](Cc3ccccc3)[C@H](C)OC2=O)c1OCOC(C)=O [Compound 56]					> 70	> 70	> 70	> 70
COc1ccnc(C(=O)N[C@H]2CCC[C@H](OCc3ccccc3)[C@@H](CCC(C)C)[C@H](C)OC2=O)c1O [Compound 58]					< 70	< 70	> 70	> 70
CCCC[C@H]1[C@H](C)OC(=O)[C@@H](NC(=O)c2nccc(OC)c2OC(C)=O)CCC[C@@H]1OCc1ccccc1 [Compound 63]	> 70	> 70	> 70	> 70				
CCCC[C@H]1[C@H](C)OC(=O)[C@@H](NC(=O)c2nccc(OC)c2O)CCC[C@@H]1OC(=O)C(C)C [Compound 64]					> 70	> 70	> 70	< 70
COc1ccnc(C(=O)N[C@H]2CCC[C@H](OCC(C)C)[C@@H](Cc3ccccc3)[C@H](C)OC2=O)c1OCOC(C)=O [Compound 65]	> 70	> 70	> 70	> 70				
COc1ccnc(C(=O)N[C@H]2CCC[C@H](OCC3CC3)[C@@H](Cc3ccccc3)[C@H](C)OC2=O)c1O [Compound 67]					> 70	> 70	> 70	> 70
